Assay results from patent US20240285497A1, “METHOD FOR EVALUATING AN ABILITY OF A TEST SAMPLE TO TRIGGER A FOREIGN BODY REACTION IN THE SKIN, A METHOD FOR SCREENING A SUBSTANCE HAVING AN ABILITY TO INHIBIT A FOREIGN BODY REACTION IN THE SKIN, AND AN AGENT FOR INHIBITING A FOREIGN BODY REACTION IN THE SKIN” (priority 2021, published 2024).

How the values were obtained:
[1] = tested on: xenobiotic responsive element (XRE); assay: Evaluation of ability to trigger a foreign body reaction using XRE-NLuc::HaCaT reporter cells (NLuc luminescence per viable cell); format: cell-based, human
Experimental: First, XRE-NLuc::HaCaT cells were suspended in a DMEM medium at the density of 1×10^5 cell/mL, and 100 μL of the thus obtained suspension was added to each well of white 96 well plates (Thermo Fisher Scientific, MA, U.S.A.; Catalogue No.: 136102) so that the number of the cells in each well was 10,000 cells/well. In accordance with a conventional method, the cells were incubated at 37° C., 5% CO2 for 24 hours. Thereafter, the DMEM medium was removed, and 100 μL of a new DMEM medium containing FICZ (6-Formylindolo[3,2-b]carbazole; CAS RN: 172922-91-7) as a test sample at a predetermined concentration was added, followed by further incubation for 24 hours at 37° C., 5% CO2. FICZ is known as a substance that triggers a foreign body reaction in which XRE is involved. Meanwhile, negative controls were prepared by adding 100 μL of a DMEM medium containing no FICZ instead of the DMEM medium containing FICZ, which were also incubated for 24 hours at 37° C., 5% CO2.
(§1) After the above-described incubation for 24 hours, the number of cells in each well was counted by a colorimetric method based on the degradation of tetrazolium salt (WST-1) by mitochondrial dehydrogenase in viable cells. Specifically, 3 μL of Premix WST-1 (Product Name “Premix WST-1 Cell Proliferation Assay System”; Takara Bio Inc., Shiga, Japan; Catalogue No.: MK400) was added to each well of 96 well plates, and then the cells were cultured for 1 hour at 37° C., 5% CO2. Thereafter, 93 μL of cell culture supernatant was removed from each well to measure the absorbance of the supernatant in each well. The removed supernatants were transferred to transparent 96 well plates, and then the absorbance at 450 nm (A450) and, as a reference wavelength, the absorbance at 670 nm (A670) were measured using iMark microplate reader (Bio-Rad; Catalogue No.: 168-1130JA). A value (A450-A670) was obtained by subtracting the absorbance at 670 nm (A670) from the absorbance at 450 nm (A450). The relative viable cell count (%) was expressed as a relative value with the value (A450-A670) obtained for the negative control as 100%.
Meanwhile, the expression level of the reporter protein was measured using samples left on the white 96-well plates after removing the supernatants for the viable cell count measurement. Briefly, 7 μL of Nano-Glo Luciferase Assay System (Promega; Catalogue No.: N110) was added to each well of the white 96-well plate. After 3 mins, the luminescence intensity obtained from the reporter protein produced by XRE-NLuc::HaCaT cells in each well was measured using GloMax Navigator Microplate Luminometer (Promega; Catalogue No.: GM2000). The obtained luminescence intensities were divided by the relative viable cell counts obtained by the above-described colorimetric method to obtain the expression level of the reporter protein (luminescence intensity) per unit number of viable cells.
In FIG. 3, the luminescence intensity per unit number of viable cells obtained from XRE-NLuc::HaCaT cells incubated with each of the DMEM medium containing FICZ at different concentrations was shown as a relative value, with the luminescence intensity per unit number of viable cells obtained for the negative control set to 1. […] In the figure, “*” and “**” indicate statistically significant differences (p<0.05 and p<0.01, respectively) from the negative control (“FICZ Concentration 0 nM” in FIG. 3).
(§2) The ability of each test sample to trigger a foreign body reaction was evaluated using XRE-NLuc::HaCaT cells in the same manner as in Experiment 1-2, except that I3C (Indole-3-carbinol, CAS RN: 700-06-1), ITE (2-(1′H-indole-3′-carbonyl)-thiazole-4-carboxylic acid methyl ester, CAS RN: 448906-42-1), and Indirubin (CAS RN: 479-41-4) were used instead of FICZ as test samples and the amount of each test sample added to the DMEM medium was appropriately changed.

XRE-NLuc::HaCaT cells = assay: in vitro; settings: read-out: LC50; XRE-NLuc::HaCaT cells, median lethal concentration
Experimental: as §1, §2

[2] = tested on: matrix metalloprotease 9 (MMP9) mRNA; assay: MMP9 mRNA expression in HaCaT cells contacted with test substance, quantitative PCR; format: cell-based, human; settings: HaCaT cells, 24 hours
Experimental: In this experiment, the effect of Fraglide-1 on the expression of MMP9 in the level of mRNA was examined first. Specifically, HaCaT cells were treated with Fraglide-1 in the same manner as described in Experiment 3-1 except that HaCaT cells were incubated for 24 hours in the medium containing 0 μM, 1 μM, 10 μM, and 100 μM of Fraglide-1 instead of being incubated for 24 hours in the medium containing both FICZ and Fraglide-1. The total RNA was then extracted, cDNA was prepared, and the quantitative PCR was performed using the obtained cDNA. Herein, the procedure of the quantitative PCR was the same as described in Experiment 3-1 except that the primers shown in below Table 4 were used. In this experiment, the expression of MMP2 mRNA was also quantified in addition to MMP9 mRNA. MMP2 is known as a MMP which is not transcriptionally regulated by a xenobiotic responsive element (XRE).
In FIG. 9 and FIG. 10, the results obtained for each sample were shown as a relative value, with the mRNA expression level of MMP9 or MMP2 in the HaCaT cells incubated for 24 hours in DMEM medium without […] (i.e., the non-treated HaCaT cells) set to 1. The results shown in FIG. 9 and FIG. 10 were the mean obtained from three independent experiments. The error bars represent the standard deviation (SD).
Next, experiments were performed to inhibit MMP9 and MMP2 in HaCaT cells using retinoic acid (CAS RN: 302-79-4) and nicotinamide (CAS RN: 98-92-0), which are known to be substances having anti-wrinkle effect. Briefly, HaCaT cells were made in contact with retinoic acid and nicotinamide in the same manner as in Experiment 4-1 except that retinoic acid and nicotinamide were used instead of Fraglide-1. Then, the total RNA was extracted, cDNA was prepared, and the quantitative PCR was carried out using the obtained cDNA.
In FIG. 12 and FIG. 13, the results obtained for each sample were shown as a relative value, with the mRNA expression level of MMP9 or MMP2 in the HaCaT cells incubated for 24 hours in DMEM medium containing neither retinoic acid nor nicotinamide (i.e., the non-treated HaCaT cells) set to 1. The results shown in FIG. 12 and FIG. 13 were the mean obtained from three independent experiments. The error bars represent the standard deviation (SD).

| Molecule | luminescence intensity (reporter protein expression) per unit number of viable cells relative to negative control ([1]; 4 nM FICZ, 24 hours, XRE-NLuc::HaCaT cells) | luminescence intensity from XRE-NLuc::HaCaT cells, dependence on concentration ([1]; FICZ at different concentrations, 24 hours) | EC50 ([1]; XRE-NLuc::HaCaT cells, reporter protein expression) | Present Experiment Maximum Effective concentration Max. Induction ([1]; XRE-NLuc::HaCaT cells, concentration at which reporter expression was maximized) | CC50 (XRE-NLuc::HaCaT cells) | decrease of expression level of MMP9 mRNA compared to medium without Fraglide-1 ([2]; 1 μM) | decrease of expression level of MMP9 mRNA compared to medium without Fraglide-1 ([2]; 10 μM) | decrease of expression level of MMP9 mRNA compared to medium without Fraglide-1 ([2]; 100 μM) |
| --- | --- | --- | --- | --- | --- | --- | --- | --- |
| 6-formylindolo[3,2-b] carbazole [FICZ] | about three times higher | increased along with the concentration of FICZ | 12 nM | 0.5 µM | > 5000 nM | – | – | – |
| O=C1C=C(c2ccccc2)C(O)O1 (centres unmarked) [Fraglide-1, 5-hydroxy-4-phenyl-2(5H)butenolide] | – | – | – | – | – | approximately 42% | ~52% | ~80% |
